The values below come from PMC8215293 (The Journal of Biological Chemistry, 2021).

One assay addresses T1, CYP11B2 (Homo sapiens, UniProt P19099).
T1 sequence (P19099 30-503 limits assumed): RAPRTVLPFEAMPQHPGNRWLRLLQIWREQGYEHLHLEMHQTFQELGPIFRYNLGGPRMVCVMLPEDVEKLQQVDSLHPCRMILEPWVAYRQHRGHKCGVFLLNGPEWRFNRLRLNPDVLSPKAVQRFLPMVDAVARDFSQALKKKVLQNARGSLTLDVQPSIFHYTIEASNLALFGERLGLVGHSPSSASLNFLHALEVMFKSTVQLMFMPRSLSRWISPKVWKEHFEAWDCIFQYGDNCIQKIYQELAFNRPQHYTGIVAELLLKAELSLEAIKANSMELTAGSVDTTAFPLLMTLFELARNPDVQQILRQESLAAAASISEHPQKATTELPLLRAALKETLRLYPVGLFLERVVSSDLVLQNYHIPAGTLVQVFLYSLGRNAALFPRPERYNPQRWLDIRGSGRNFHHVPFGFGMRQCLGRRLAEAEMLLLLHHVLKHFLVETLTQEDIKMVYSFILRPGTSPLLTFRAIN
In kind it is binding. Particulars: isolated CYP11B2 0.2 μM, 5 cm path length.

Assay [1] deals with T2, adrenodoxin–CYP11B2 fusion protein (Homo sapiens, UniProt P10109+P19099).
T2 sequence (P10109+P19099 with tags, fused parts or gaps): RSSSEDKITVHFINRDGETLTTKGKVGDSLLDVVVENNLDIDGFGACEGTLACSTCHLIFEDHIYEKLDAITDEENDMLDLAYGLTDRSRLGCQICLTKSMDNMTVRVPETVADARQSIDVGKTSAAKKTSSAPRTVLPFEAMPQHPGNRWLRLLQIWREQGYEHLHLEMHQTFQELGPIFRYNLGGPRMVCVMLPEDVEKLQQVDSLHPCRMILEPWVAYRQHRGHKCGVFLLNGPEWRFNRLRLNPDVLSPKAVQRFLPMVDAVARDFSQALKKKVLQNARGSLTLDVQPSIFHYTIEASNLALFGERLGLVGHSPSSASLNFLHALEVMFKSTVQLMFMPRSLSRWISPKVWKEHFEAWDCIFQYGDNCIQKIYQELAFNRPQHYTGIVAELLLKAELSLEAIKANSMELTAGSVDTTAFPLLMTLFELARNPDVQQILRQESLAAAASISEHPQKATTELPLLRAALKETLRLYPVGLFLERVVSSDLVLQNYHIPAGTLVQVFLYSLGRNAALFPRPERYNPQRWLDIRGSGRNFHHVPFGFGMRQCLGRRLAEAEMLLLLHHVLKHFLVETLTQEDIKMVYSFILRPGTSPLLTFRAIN
In kind it is binding. Particulars: Adx-CYP11B2 fusion 0.2 μM, 5 cm path length.

The subject of assay [2] is adrenodoxin–CYP11B2 fusion protein. In kind it is binding, human. Conditions: fusion versus isolated CYP11B2.

Each structure is given as a SMILES string. “And” between values parts separate entries of the source, which are not always exact repeats. Identical values can stand only once.

For `N#Cc1ccc([C@H]2CCc3cncn32)c(F)c1` [LCI699, osilodrostat], the Amax at CYP11B2 turned out to be 0.019. The compound further registered an Amax in assay [1] of 0.032. In addition, in assay [2], the “increase of Amax (enzyme population binding inhibitor at saturation)” value was ~1.7 fold and 1.7 fold; the “increase of Kd” value is recorded as 1.8 fold.
